system: HepG2; experiment: Cytotoxicity against human HepG2 cells; assay type: functional, cell-based; details: not given

Structure (SMILES) | IC50
O=C1OCC2=C1C(c1ccc(C(F)(F)F)cc1)C1=C(N2)C(=O)c2ccccc2C1=O (stereo not drawn) | 1240 nM
COc1cccc(C2C3=C(COC3=O)NC3=C2C(=O)c2ccccc2C3=O)c1 (stereo not drawn) | 460 nM
COc1ccc(C2C3=C(COC3=O)NC3=C2C(=O)c2ccccc2C3=O)cc1 (stereo not drawn) | 2060 nM
O=C1OCC2=C1C(c1ccc(F)cc1)C1=C(N2)C(=O)c2ccccc2C1=O (stereo not drawn) | 440 nM
O=C1OCC2=C1C(c1ccc3c(c1)C(=O)OC3)C1=C(N2)C(=O)c2ccccc2C1=O (stereo not drawn) | 470 nM
O=C1OCC2=C1C(c1cccc3ccccc13)C1=C(N2)C(=O)c2ccccc2C1=O (stereo not drawn) | > 2500 nM
O=C1OCC2=C1C(c1ccccc1)C1=C(N2)C(=O)c2ccccc2C1=O (stereo not drawn) | < 44 nM
COc1cc(C2C3=C(COC3=O)NC3=C2C(=O)c2ccccc2C3=O)ccc1O (stereo not drawn) | 410 nM
O=C1OCC2=C1C(c1ccc(Cl)cc1)C1=C(N2)C(=O)c2ccccc2C1=O (stereo not drawn) | 1350 nM
O=C1OCC2=C1C(c1ccccc1[N+](=O)[O-])C1=C(N2)C(=O)c2ccccc2C1=O (stereo not drawn) | > 2500 nM
O=C1OCC2=C1C(c1cccc([N+](=O)[O-])c1)C1=C(N2)C(=O)c2ccccc2C1=O (stereo not drawn) | < 39 nM
O=C1OCC2=C1C(c1cccc(Br)c1)C1=C(N2)C(=O)c2ccccc2C1=O (stereo not drawn) | < 36 nM
O=C1OCC2=C1C(c1ccccc1F)C1=C(N2)C(=O)c2ccccc2C1=O (stereo not drawn) | 420 nM
O=C1OCC2=C1C(c1ccc(Br)cc1)C1=C(N2)C(=O)c2ccccc2C1=O (stereo not drawn) | 1500 nM
O=C1OCC2=C1C(c1ccc3ccccc3c1)C1=C(N2)C(=O)c2ccccc2C1=O (stereo not drawn) | 1680 nM
Cc1ccc(C2C3=C(COC3=O)NC3=C2C(=O)c2ccccc2C3=O)cc1 (stereo not drawn) | 2240 nM
Cc1c2ccncc2c(C)c2c1[nH]c1ccccc12 [ELLIPTECINE] | 1660 nM

system: not listed separately; experiment: Selectivity index, ratio of IC50 for human HEK293 cells to IC50 for human SK-LU-1 cells; details: not given

Structure (SMILES) | Ratio IC50
COc1cccc(C2C3=C(COC3=O)NC3=C2C(=O)c2ccccc2C3=O)c1 (stereo not drawn) | >=200
O=C1OCC2=C1C(c1ccccc1)C1=C(N2)C(=O)c2ccccc2C1=O (stereo not drawn) | >=200
O=C1OCC2=C1C(c1cccc([N+](=O)[O-])c1)C1=C(N2)C(=O)c2ccccc2C1=O (stereo not drawn) | >=200
O=C1OCC2=C1C(c1cccc(Br)c1)C1=C(N2)C(=O)c2ccccc2C1=O (stereo not drawn) | >=200

system: MCF7; experiment: Cytotoxicity against human MCF7 cells; assay type: functional, cell-based; details: not given

Structure (SMILES) | IC50
O=C1OCC2=C1C(c1ccc(C(F)(F)F)cc1)C1=C(N2)C(=O)c2ccccc2C1=O (stereo not drawn) | > 2500 nM
COc1cccc(C2C3=C(COC3=O)NC3=C2C(=O)c2ccccc2C3=O)c1 (stereo not drawn) | > 2500 nM
COc1ccc(C2C3=C(COC3=O)NC3=C2C(=O)c2ccccc2C3=O)cc1 (stereo not drawn) | > 2500 nM
O=C1OCC2=C1C(c1ccc(F)cc1)C1=C(N2)C(=O)c2ccccc2C1=O (stereo not drawn) | > 2500 nM
O=C1OCC2=C1C(c1ccc3c(c1)C(=O)OC3)C1=C(N2)C(=O)c2ccccc2C1=O (stereo not drawn) | > 2500 nM
O=C1OCC2=C1C(c1cccc3ccccc13)C1=C(N2)C(=O)c2ccccc2C1=O (stereo not drawn) | > 2500 nM
O=C1OCC2=C1C(c1ccccc1)C1=C(N2)C(=O)c2ccccc2C1=O (stereo not drawn) | 1980 nM
COc1cc(C2C3=C(COC3=O)NC3=C2C(=O)c2ccccc2C3=O)ccc1O (stereo not drawn) | > 2500 nM
O=C1OCC2=C1C(c1ccc(Cl)cc1)C1=C(N2)C(=O)c2ccccc2C1=O (stereo not drawn) | > 2500 nM
O=C1OCC2=C1C(c1ccccc1[N+](=O)[O-])C1=C(N2)C(=O)c2ccccc2C1=O (stereo not drawn) | > 2500 nM
O=C1OCC2=C1C(c1cccc([N+](=O)[O-])c1)C1=C(N2)C(=O)c2ccccc2C1=O (stereo not drawn) | 2190 nM
O=C1OCC2=C1C(c1cccc(Br)c1)C1=C(N2)C(=O)c2ccccc2C1=O (stereo not drawn) | > 2500 nM
O=C1OCC2=C1C(c1ccccc1F)C1=C(N2)C(=O)c2ccccc2C1=O (stereo not drawn) | > 2500 nM
O=C1OCC2=C1C(c1ccc(Br)cc1)C1=C(N2)C(=O)c2ccccc2C1=O (stereo not drawn) | > 2500 nM
O=C1OCC2=C1C(c1ccc3ccccc3c1)C1=C(N2)C(=O)c2ccccc2C1=O (stereo not drawn) | > 2500 nM
Cc1ccc(C2C3=C(COC3=O)NC3=C2C(=O)c2ccccc2C3=O)cc1 (stereo not drawn) | > 2500 nM
Cc1c2ccncc2c(C)c2c1[nH]c1ccccc12 [ELLIPTECINE] | 1580 nM

system: SK-LU-1; experiment: Cytotoxicity against human SK-LU-1 cells; assay type: functional, cell-based; details: not given

Structure (SMILES) | IC50
O=C1OCC2=C1C(c1ccc(C(F)(F)F)cc1)C1=C(N2)C(=O)c2ccccc2C1=O (stereo not drawn) | 510 nM
COc1cccc(C2C3=C(COC3=O)NC3=C2C(=O)c2ccccc2C3=O)c1 (stereo not drawn) | < 40 nM
COc1ccc(C2C3=C(COC3=O)NC3=C2C(=O)c2ccccc2C3=O)cc1 (stereo not drawn) | 880 nM
O=C1OCC2=C1C(c1ccc(F)cc1)C1=C(N2)C(=O)c2ccccc2C1=O (stereo not drawn) | 280 nM
O=C1OCC2=C1C(c1ccc3c(c1)C(=O)OC3)C1=C(N2)C(=O)c2ccccc2C1=O (stereo not drawn) | 80 nM
O=C1OCC2=C1C(c1cccc3ccccc13)C1=C(N2)C(=O)c2ccccc2C1=O (stereo not drawn) | > 2500 nM
O=C1OCC2=C1C(c1ccccc1)C1=C(N2)C(=O)c2ccccc2C1=O (stereo not drawn) | < 44 nM
COc1cc(C2C3=C(COC3=O)NC3=C2C(=O)c2ccccc2C3=O)ccc1O (stereo not drawn) | 410 nM
O=C1OCC2=C1C(c1ccc(Cl)cc1)C1=C(N2)C(=O)c2ccccc2C1=O (stereo not drawn) | 500 nM
O=C1OCC2=C1C(c1ccccc1[N+](=O)[O-])C1=C(N2)C(=O)c2ccccc2C1=O (stereo not drawn) | 2220 nM
O=C1OCC2=C1C(c1cccc([N+](=O)[O-])c1)C1=C(N2)C(=O)c2ccccc2C1=O (stereo not drawn) | < 39 nM
O=C1OCC2=C1C(c1cccc(Br)c1)C1=C(N2)C(=O)c2ccccc2C1=O (stereo not drawn) | < 36 nM
O=C1OCC2=C1C(c1ccccc1F)C1=C(N2)C(=O)c2ccccc2C1=O (stereo not drawn) | 280 nM
O=C1OCC2=C1C(c1ccc(Br)cc1)C1=C(N2)C(=O)c2ccccc2C1=O (stereo not drawn) | 450 nM
O=C1OCC2=C1C(c1ccc3ccccc3c1)C1=C(N2)C(=O)c2ccccc2C1=O (stereo not drawn) | 1020 nM
Cc1ccc(C2C3=C(COC3=O)NC3=C2C(=O)c2ccccc2C3=O)cc1 (stereo not drawn) | 1650 nM
Cc1c2ccncc2c(C)c2c1[nH]c1ccccc12 [ELLIPTECINE] | 1540 nM

system: HEK293; experiment: Cytotoxicity against human HEK293 cells; assay type: cell-based; details: not given

Structure (SMILES) | IC50
O=C1OCC2=C1C(c1ccc(C(F)(F)F)cc1)C1=C(N2)C(=O)c2ccccc2C1=O (stereo not drawn) | 7590 nM
COc1cccc(C2C3=C(COC3=O)NC3=C2C(=O)c2ccccc2C3=O)c1 (stereo not drawn) | 9350 nM
COc1ccc(C2C3=C(COC3=O)NC3=C2C(=O)c2ccccc2C3=O)cc1 (stereo not drawn) | 8170 nM
O=C1OCC2=C1C(c1ccc(F)cc1)C1=C(N2)C(=O)c2ccccc2C1=O (stereo not drawn) | 5350 nM
O=C1OCC2=C1C(c1ccc3c(c1)C(=O)OC3)C1=C(N2)C(=O)c2ccccc2C1=O (stereo not drawn) | 4780 nM
O=C1OCC2=C1C(c1cccc3ccccc13)C1=C(N2)C(=O)c2ccccc2C1=O (stereo not drawn) | 14700 nM
O=C1OCC2=C1C(c1ccccc1)C1=C(N2)C(=O)c2ccccc2C1=O (stereo not drawn) | 1340 nM
COc1cc(C2C3=C(COC3=O)NC3=C2C(=O)c2ccccc2C3=O)ccc1O (stereo not drawn) | 1410 nM
O=C1OCC2=C1C(c1ccc(Cl)cc1)C1=C(N2)C(=O)c2ccccc2C1=O (stereo not drawn) | 5890 nM
O=C1OCC2=C1C(c1ccccc1[N+](=O)[O-])C1=C(N2)C(=O)c2ccccc2C1=O (stereo not drawn) | 9950 nM
O=C1OCC2=C1C(c1cccc([N+](=O)[O-])c1)C1=C(N2)C(=O)c2ccccc2C1=O (stereo not drawn) | 1470 nM
O=C1OCC2=C1C(c1cccc(Br)c1)C1=C(N2)C(=O)c2ccccc2C1=O (stereo not drawn) | 7200 nM
O=C1OCC2=C1C(c1ccccc1F)C1=C(N2)C(=O)c2ccccc2C1=O (stereo not drawn) | 10300 nM
O=C1OCC2=C1C(c1ccc(Br)cc1)C1=C(N2)C(=O)c2ccccc2C1=O (stereo not drawn) | 8270 nM
O=C1OCC2=C1C(c1ccc3ccccc3c1)C1=C(N2)C(=O)c2ccccc2C1=O (stereo not drawn) | 7610 nM
Cc1ccc(C2C3=C(COC3=O)NC3=C2C(=O)c2ccccc2C3=O)cc1 (stereo not drawn) | 21600 nM
Cc1c2ccncc2c(C)c2c1[nH]c1ccccc12 [ELLIPTECINE] | 1690 nM

system: not listed separately; experiment: Selectivity index, ratio of IC50 for human HEK293 cells to IC50 for human HepG2 cells; assay type: toxicity; details: HEK293 cells and HepG2 cells, read-out: Ratio IC50

Structure (SMILES) | selectivity ratio
COc1cccc(C2C3=C(COC3=O)NC3=C2C(=O)c2ccccc2C3=O)c1 (stereo not drawn) | ≥ 200
O=C1OCC2=C1C(c1ccccc1)C1=C(N2)C(=O)c2ccccc2C1=O (stereo not drawn) | ≥ 200
O=C1OCC2=C1C(c1cccc([N+](=O)[O-])c1)C1=C(N2)C(=O)c2ccccc2C1=O (stereo not drawn) | ≥ 200
O=C1OCC2=C1C(c1cccc(Br)c1)C1=C(N2)C(=O)c2ccccc2C1=O (stereo not drawn) | ≥ 200

system: KB; experiment: Cytotoxicity against human KB cells; assay type: functional, cell-based; details: not given

Structure (SMILES) | IC50
O=C1OCC2=C1C(c1ccc(C(F)(F)F)cc1)C1=C(N2)C(=O)c2ccccc2C1=O (stereo not drawn) | 800 nM
COc1cccc(C2C3=C(COC3=O)NC3=C2C(=O)c2ccccc2C3=O)c1 (stereo not drawn) | 1230 nM
COc1ccc(C2C3=C(COC3=O)NC3=C2C(=O)c2ccccc2C3=O)cc1 (stereo not drawn) | 880 nM
O=C1OCC2=C1C(c1ccc(F)cc1)C1=C(N2)C(=O)c2ccccc2C1=O (stereo not drawn) | 2160 nM
O=C1OCC2=C1C(c1ccc3c(c1)C(=O)OC3)C1=C(N2)C(=O)c2ccccc2C1=O (stereo not drawn) | 1860 nM
O=C1OCC2=C1C(c1cccc3ccccc13)C1=C(N2)C(=O)c2ccccc2C1=O (stereo not drawn) | > 2500 nM
O=C1OCC2=C1C(c1ccccc1)C1=C(N2)C(=O)c2ccccc2C1=O (stereo not drawn) | 1540 nM
COc1cc(C2C3=C(COC3=O)NC3=C2C(=O)c2ccccc2C3=O)ccc1O (stereo not drawn) | 1900 nM
O=C1OCC2=C1C(c1ccc(Cl)cc1)C1=C(N2)C(=O)c2ccccc2C1=O (stereo not drawn) | 1460 nM
O=C1OCC2=C1C(c1ccccc1[N+](=O)[O-])C1=C(N2)C(=O)c2ccccc2C1=O (stereo not drawn) | 2340 nM
O=C1OCC2=C1C(c1cccc([N+](=O)[O-])c1)C1=C(N2)C(=O)c2ccccc2C1=O (stereo not drawn) | 1160 nM
O=C1OCC2=C1C(c1cccc(Br)c1)C1=C(N2)C(=O)c2ccccc2C1=O (stereo not drawn) | 1710 nM
O=C1OCC2=C1C(c1ccccc1F)C1=C(N2)C(=O)c2ccccc2C1=O (stereo not drawn) | 1190 nM
O=C1OCC2=C1C(c1ccc(Br)cc1)C1=C(N2)C(=O)c2ccccc2C1=O (stereo not drawn) | 2140 nM
O=C1OCC2=C1C(c1ccc3ccccc3c1)C1=C(N2)C(=O)c2ccccc2C1=O (stereo not drawn) | > 2500 nM
Cc1ccc(C2C3=C(COC3=O)NC3=C2C(=O)c2ccccc2C3=O)cc1 (stereo not drawn) | > 2500 nM
Cc1c2ccncc2c(C)c2c1[nH]c1ccccc12 [ELLIPTECINE] | 1750 nM
